In patent US20250263370A1 (Tay Therapeutics Limited, priority 2022, published 2025):
Several values for one entry are separate records, joined by “and”; a condition that tells them apart may be missing. Equal values may be shown once. Read-outs that look alike come from different tables or passages of the source.

Key:
[1] = Pharmacokinetics and plasma concentration of Example 101 in Lewis rats after oral administration (CIA study); assay type: in vivo, Lewis rat; conditions: Day 21, Group 4 (CIA + GSK620)
[2] = system: IL-17A; assay: IL-17A levels by ELISA in stimulated human peripheral blood mononuclear cells; assay type: cell-based; conditions: Homo sapiens, PBMC
Description: CD2, CD3, and CD28 antibody-coated beads from the T-cell activation/expansion kit (Miltenyi Biotec) were added to the PBMC at a bead-to-cell ratio of 1:2.
The mixture of PBMCs and beads were seeded into the wells of the round-bottom 96-well plate at a concentration of 2×10^5 cells/well in a total volume of 200 μL. The cells were cultured for 72 hours at 37° C. and 5% CO2 and then supernatants were collected and IL-17A and IL-22 levels were measured by ELISA. […] The final compound concentration ranged from 30,000 nM to 0.005 nM and the final DMSO concentration per well was 0.3%. PBMCs were seeded at approximately 2×10^5 cells/well in the wells of the 96-well tissue culture plate in a total volume of 190 μL. The plate was incubated for 1 hour at 37° C. and 5% CO2. […] The cells were then cultured for 24 hours at 37° C. and 5% CO2. The supernatant was collected and CXCL10 levels were measured by ELISA.

CNC(=O)c1cc(C(=O)NC2CC2)cn(Cc2ccccc2)c1=O [GSK620]
Plasma concentration ([1]; per animal): 1590 ng/mL and 4170 ng/mL and 3070 ng/mL and 2740 ng/mL and 1760 ng/mL and 3230 ng/mL and 3450 ng/mL and 2540 ng/mL | concentration at 21 day ([1]; Lewis, rat, plasma, oral, read-out: Mean Plasma Concentration): 2820 ng/mL | IC50 ([2]; Test Subject 1, read-out: IL-17A IC50): 0.0805 µM | IC50 ([2]; Test Subject 2, read-out: IL-17A IC50): 0.0597 µM | IC50 ([2]; Test Subject 3, read-out: IL-17A IC50): 0.139 µM | IC50 ([2]; mean of test subjects, read-out: IL-17A IC50 Mean): 0.0932 µM
